The subject of one series is DNA. As to the kind of experiment: Quantum yield of dye on DNA versus fluorescein. The settings on record: Table 2; Tris buffered saline pH 10; fluorescein assumed 0.92. Format: physicochemical. The source says: ^ Quantum yield (QY) of dye on DNA (standard solution in Tris buffere
saline adjusted to pH 10) in comparison with fluorescein, which is assume
to have a quantum yield of 0.92 under the test conditions.
Factors such as degree of fluorescence enhancement with nucleic acid binding, self quenching, molar extinction coefficient, membrane permeability, intracellular partitioning, nucleic acid binding affinity, and quantum yield contribute to the overall fluorescence of nucleic acid stains in cells. Enhanced cell fluorescence obtained with Dye I is related to unexpected properties other than quantum yield alone. Quantum yield is determined as described above (foot note to Table 2). Normalized quantum yield is determined to illustrate the fold-change in quantum yield of Dye I compared with thiazole orange, a related cell-permeant dye. The normalized fluorescence values represent the quantum yield of each dye divided by the quantum yield of thiazole orange. Fluorescence per cell is also scaled to thiazole orange values for both E. coli and S. aureus to allow direct comparison between relative (normalized) quantum yield and relative (normalized) fluorescence/cell.

The test system of a further series is nucleic acids. As to the kind of experiment: Excitation/emission maxima of dyes complexed with nucleic acids. More on the design: key: wavelength in nm. The settings on record: Table 2; dye complexed with nucleic acids. Type of series: physicochemical. The source says: Dye I is lightly colored and is virtually non-fluorescent when diluted in aqueous solution according to the method of the invention. Dye I is highly membrane-permeant and labels all cells, whether live or dead. When Dye I binds with intracellular nucleic acid polymers such as DNA and RNA, the resultant dye-nucleic acid complex becomes extremely fluorescent upon illumination. The quantum yield of the preferred Dye I/DNA complex is greater than 0.02, typically greater than 0.1, preferably greater than 0.2, and more preferably greater than 0.3. Typically, Dye I combines with intracellular nucleic acids to give a green or red fluorescence. When excited at a wavelength between about 300 nm and about 500 nm, the dyes complexed with nucleic acids have an emission maximum between about 500 and about 610 nm (see Table 2). Preferably, Dye I complexed with nucleic acids has an emission maximum of between about 500 nm and about 535 nm, resulting in a true green fluorescent signal in cells of the sample where Dye I is present alone.

A further series concerns calf thymus DNA. To be noted: Table 5; bound to excess calf thymus DNA (50 bp/dye); cited from earlier work.

With `C[n+]1c(C=C2C=C(Cl)N(C3CCCCC3)c3ccccc32)sc2ccccc21` [780 (Cl)], the “QY (DNA)” value with DNA came to 0.09. Further, in the series on nucleic acids, the EM max was 536 and the EX max is given as 513.

Regarding `CSC1=CC(=Cc2sc3ccccc3[n+]2C)c2ccccc2N1C1CCCCC1` [780 (S)], the “QY (DNA)” value in the series with DNA stood at 0.31.

With `C[n+]1c(C=C2C=CN(CCC[N+](C)(C)C)C=C2)sc2ccccc21` [BO-PRO-1], in the series on calf thymus DNA, the EM max was 481 nm and the EX max is recorded as 462 nm.

As to `C[n+]1c(C=CC=C2C=CN(CCC[N+](C)(C)C)C=C2)sc2ccccc21` [BO-PRO-3], in the series with calf thymus DNA, the EM max is 599 nm and the EX max was 575 nm.

On to `C[n+]1c(C=C2C=CN(CCC[N+](C)(C)CCC[N+](C)(C)CCCN3C=CC(=Cc4sc5ccccc5[n+]4C)C=C3)C=C2)sc2ccccc21` [BOBO-1], for which, in the series on calf thymus DNA, the EM max is recorded as 481 nm and the EX max was 462 nm.

For `C[n+]1c(C=CC=C2C=CN(CCC[N+](C)(C)CCC[N+](C)(C)CCCN3C=CC(=CC=Cc4sc5ccccc5[n+]4C)C=C3)C=C2)sc2ccccc21` [BOBO-3], in the series with calf thymus DNA, the EM max was 602 nm and the EX max was 570 nm.

As for `CC[n+]1c(-c2ccccc2)c2cc(N)ccc2c2ccc(N)cc21` [Ethidium bromide], in the series on calf thymus DNA, the EM max is 595 nm and the EX max is reported as 510 nm.

Regarding `CC[n+]1c(-c2ccccc2)c2cc(N=[N+]=[N-])ccc2c2ccc(N)cc21` [Ethidium monoazide], in the series with calf thymus DNA, the EM max is reported as 615 nm and the EX max was 465 nm.

In the case of `C[n+]1c(C=C2C=CN(CCC[N+](C)(C)C)C=C2)oc2ccccc21` [PO-PRO-1], in the series with calf thymus DNA, the EM max is on record as 455 nm and the EX max is on record as 435 nm.

In the case of `C[n+]1c(C=CC=C2C=CN(CCC[N+](C)(C)C)C=C2)oc2ccccc21` [PO-PRO-3], in the series with calf thymus DNA, the EM max was 567 nm and the EX max is 539 nm.

Turning to `C[n+]1c(C=C2C=CN(CCC[N+](C)(C)CCC[N+](C)(C)CCCN3C=CC(=Cc4oc5ccccc5[n+]4C)C=C3)C=C2)oc2ccccc21` [POPO-1], in the series on calf thymus DNA, the EM max is recorded as 456 nm and the EX max is 434 nm.

Consider `C[n+]1c(C=CC=C2C=CN(CCC[N+](C)(C)CCC[N+](C)(C)CCCN3C=CC(=CC=Cc4oc5ccccc5[n+]4C)C=C3)C=C2)oc2ccccc21` [POPO-3], for which, in the series with calf thymus DNA, the EM max was 570 nm and the EX max was 534 nm.

Turning to `C[n+]1c(C=C2C=Cc3ccccc3N2c2ccccc2)sc2ccccc21` [compound 64], in the series on nucleic acids, the EM max is on record as 523 and the EX max was found to be 450.

Regarding `CCCCc1cc(C=C2Sc3ccccc3N2C)c2ccccc2[n+]1-c1cccs1` [compound 71], the “QY (DNA)” value in the series on DNA amounted to 0.31. In the series with nucleic acids, the EM max is 526 and the EX max was determined as 508.

`CN1C=CC(=Cc2sc3ccccc3[n+]2C)c2cccc(-c3ccccc3)c21` [compound 72]: the “QY (DNA)” value in the series with DNA was 0.026. In the series on nucleic acids, this molecule gave an EM max of 535 and an EX max of 515.

For `CN1C(=Cc2cc[n+](C3CCCCC3)c3ccccc23)Sc2ccccc21` [compound 73], the “QY (DNA)” value with DNA was 0.31. Further, in the series with nucleic acids, the EM max is given as 525 and the EX max stood at 508.

In the series on nucleic acids, `CCN1C(=Cc2cc(Cl)[n+](-c3ccccc3)c3ccccc23)Sc2ccccc21` [compound 200] returned an EM max of 759 and an EX max of 739.

Consider `CN1C(=Cc2cc[n+](C3CCCCC3)c3ccccc23)Sc2ccccc21` [compound 542], for which, in the series with nucleic acids, the EM max came out at 527 and the EX max was found to be 510.

In the series with nucleic acids, `C[n+]1c(C=C2C=CN(c3ccccc3)C(Cl)=C2)sc2ccccc21` [compound 578] showed an EM max of 504 and an EX max of 470.

In the case of `COc1ccc(N2C(Cl)=CC(=Cc3sc4ccccc4[n+]3C)c3ccccc32)cc1` [compound 582], in the series on nucleic acids, the EM max was determined as 533 and the EX max is reported as 516.

In the series on nucleic acids, `COc1ccccc1N1C=CC(=Cc2sc3ccccc3[n+]2C)C=C1Cl` [compound 616] yielded an EM max of 510 and an EX max of 471.

Regarding `CCCCC1=CC(=CC=Cc2sc3ccccc3[n+]2C)c2ccccc2N1c1ccccc1` [compound 621], in the series with nucleic acids, the EM max amounted to 656 and the EX max was 635.

Turning to `C[n+]1c(C=C2C=C(c3ccccc3)N(c3ccccc3)c3ccccc32)sc2ccccc21` [compound 630], in the series with DNA, the “QY (DNA)” value amounted to 0.19. In the series on nucleic acids, this molecule returned an EM max of 544 and an EX max of 517.

Consider `C[n+]1c(C=C2C=C(Cl)N(c3ccccc3)c3ccccc32)oc2ccccc21` [compound 633], for which, in the series on DNA, the “QY (DNA)” value is 0.12. In the series on nucleic acids, this molecule returned an EM max of 508 and an EX max of 489.

On to `CN1C(c2ccccc2)=CC(=Cc2sc3ccccc3[n+]2C)c2ccccc21` [compound 639], for which, in the series on DNA, the “QY (DNA)” value is 0.20. Further, in the series on nucleic acids, the EM max was 548 and the EX max is reported as 513.

With `C[n+]1c(C=C2C=CN(c3ccccc3)C=C2)sc2ccccc21` [compound 640], in the series with nucleic acids, the EM max is reported as 516 and the EX max came out at 471.

Turning to `CSC1=CC(=Cc2sc3ccccc3[n+]2C)c2ccccc2N1c1ccccc1` [compound 641], in the series with DNA, the “QY (DNA)” value was 0.35. In the series on nucleic acids, this molecule registered an EM max of 526 and an EX max of 503.

Regarding `COC1=CC(=CC=Cc2oc3ccccc3[n+]2C)c2ccccc2N1c1ccccc1` [compound 672], in the series with nucleic acids, the EM max is recorded as 611 and the EX max is listed as 586.

Consider `CCOC1=CC(=Cc2sc3ccccc3[n+]2C)c2ccccc2N1c1ccccc1` [compound 720], for which, in the series on DNA, the “QY (DNA)” value stood at 0.52. In the series with nucleic acids, the EM max is reported as 507 and the EX max came to 487.

With `CCCCC1=CC(=CC=Cc2sc3ccccc3[n+]2C)C=CN1c1ccccc1` [compound 742], in the series with nucleic acids, the EM max worked out at 611 and the EX max amounted to 570.

With `CN1C(=Cc2cc(N3CCOCC3)[n+](C)c3ccccc23)Sc2ccccc21` [compound 752], the “QY (DNA)” value in the series on DNA is on record as 0.51. Besides, in the series on nucleic acids, the EM max is reported as 518 and the EX max was determined as 494.

Turning to `CCN(CC)C1=CC(=Cc2sc3ccccc3[n+]2C)c2ccc(OC)cc2N1c1ccccc1` [compound 760], the “QY (DNA)” value in the series with DNA was determined as 0.68. In the series on nucleic acids, this molecule returned an EM max of 510 and an EX max of 485.

With `CC(C)OC1=CC(=Cc2sc3ccccc3[n+]2C)c2ccccc2N1c1ccccc1` [compound 764], in the series on DNA, the “QY (DNA)” value amounted to 0.58. In the series on nucleic acids, the EM max was found to be 508 and the EX max was found to be 486.

As for `C[n+]1c(C=C2C=C(C3CCCCC3)N(c3ccccc3)c3ccccc32)sc2ccccc21` [compound 765], the “QY (DNA)” value in the series on DNA is 0.50. In the series with nucleic acids, the EM max was 524 and the EX max came to 506.

In the series with nucleic acids, `C[n+]1c(C=C2C=C(Br)N(c3ccccc3)c3ccccc32)sc2ccccc21` [compound 774] yielded an EM max of 533 and an EX max of 517.

With `CCCN(CCC)C1=CC(=Cc2sc3ccccc3[n+]2C)c2ccccc2N1c1ccccc1` [compound 776], the “QY (DNA)” value in the series on DNA was 0.65.

In the series on nucleic acids, `CN1C(=Cc2cc(Cl)[n+](-c3cccs3)c3ccccc23)Sc2ccccc21` [compound 830] came in with an EM max of 533 and an EX max of 517.

In the series on nucleic acids, `C[n+]1c(C=C2C=C(F)N(c3ccccc3)c3ccccc32)sc2ccccc21` [compound 834] showed an EM max of 507 and an EX max of 486.

Consider `C[n+]1c(C=C2C=C(Oc3ccccc3)N(c3ccccc3)c3ccccc32)sc2ccccc21` [compound 835], for which, in the series on nucleic acids, the EM max stood at 518 and the EX max is 495.

`C[n+]1c(C=C2C=C(Sc3ccccn3)N(c3ccccc3)c3ccccc32)sc2ccccc21` [compound 853]: in the series on nucleic acids, the EM max was 555 and the EX max came out at 516.

In the series on nucleic acids, `C[n+]1c(C=C2C=C(OS(=O)(=O)C(F)(F)F)N(c3ccccc3)c3ccccc32)sc2ccccc21` [compound 854] gave an EM max of 520 and an EX max of 483.

Take `CN1CCN(C2=CC(=Cc3sc4ccccc4[n+]3C)c3ccccc3N2c2ccccc2)CC1` [compound 856]: the “QY (DNA)” value in the series with DNA was 0.43. In the series with nucleic acids, this molecule displayed an EM max of 523 and an EX max of 502.

Take `COc1ccc2c(c1)N(c1ccccc1)C(Cl)=CC2=Cc1sc2ccccc2[n+]1C` [compound 5103]: the “QY (DNA)” value in the series on DNA was found to be 0.18. Further, in the series with nucleic acids, the EM max worked out at 530 and the EX max stood at 511.

Regarding `CN1C(C2CCCCC2)=CC(=Cc2sc3ccccc3[n+]2C)c2ccccc21` [compound 6104], the “QY (DNA)” value in the series with DNA came to 0.52. Also, in the series with nucleic acids, the EM max came to 523 and the EX max is listed as 505.

The values are drawn from patent US5534416A, “Fluorescent viability assay using cyclic-substituted unsymmetrical cyanine dyes” (Molecular Probes, Inc., priority 1993, dated 1996).
